Converted amounts (≈) assume the structure as drawn.
What was measured:
[1] = system: bacterial protein synthesis (aminoacylation/translation system); assay: aminoacylation/translation (A/T) assay; format: biochemical; details: A/T assay, Table 1; read-out: IC50
E. faecalis = assay: Broth microdilution MIC testing; format: cell-based, Enterococcus faecalis; details: E. faecalis
M. catarrhalis = assay: Broth microdilution MIC testing; format: cell-based, Moraxella catarrhalis
H. influenzae = assay: Broth microdilution MIC testing; format: cell-based, Haemophilus influenzae; details: H. influenzae
S. pneumoniae = assay: Broth microdilution MIC testing; format: cell-based, Streptococcus pneumoniae; details: S. pneumoniae
S. aureus = assay: Broth microdilution MIC testing; format: cell-based, Staphylococcus aureus; details: S. aureus
E. coli tolC mutants = assay: Broth microdilution MIC testing; format: cell-based, Escherichia coli; details: E. coli tolC mutants
[2] = system: E. coli modified with PMBN; assay: Broth microdilution MIC testing; format: cell-based, Escherichia coli; details: E. coli modified with PMBN

SMILES | IC50 [1] [nM] | MIC E. fae (E. faecalis) [µg/mL] | MIC M. cat (M. catarrhalis) [µg/mL] | MIC H. flu (H. influenzae) [µg/mL] | MIC S. pneumo (S. pneumoniae) [µg/mL] | MIC S. aureus (S. aureus) [µg/mL] | MIC E. coli tolC (E. coli tolC mutants) [µg/mL] | MIC E. coli +PMBP [2] [µg/mL]
COc1cc(CN2CCc3nc(-c4ccccn4)[nH]c(=O)c3C2)ccc1OCCO [Compound 323214] | > 300000 | > 128 | > 128 | > 128 | > 128 | > 128 | > 128 | > 128
COc1cc(CN2CCc3nc(-c4ccccn4)[nH]c(=O)c3C2)ccc1O [Compound 323215] | 2100 | > 128 | 128 (≈ 351 µM) | 64 (≈ 176 µM) | > 128 | > 128 | > 128 | > 128
O=c1[nH]c(-c2ccccn2)nc2c1CN(Cc1ccc(Cl)cc1)CC2 [Compound 323216] | 1100 | 32 (≈ 90.7 µM) | ≤0.12 | 2 (≈ 5.67 µM) | 4 (≈ 11.3 µM) | 16 (≈ 45.3 µM) | 8 (≈ 22.7 µM) | 8 (≈ 22.7 µM)
COc1ccc(CN2CCc3nc(-c4ccccn4)[nH]c(=O)c3C2)cc1O [Compound 323217] | 4800 | > 128 | 32 (≈ 87.8 µM) | 32 (≈ 87.8 µM) | > 128 | > 128 | > 128 | > 128
O=c1[nH]c(-c2ccccn2)nc2c1CN(Cc1ccccc1Cl)CC2 [Compound 323219] | 3000 | 32 (≈ 90.7 µM) | ≤0.12 | 4 (≈ 11.3 µM) | 4 (≈ 11.3 µM) | 16 (≈ 45.3 µM) | 8 (≈ 22.7 µM) | 16 (≈ 45.3 µM)
O=c1[nH]c(-c2ccccn2)nc2c1CN(Cc1cccc(Cl)c1)CC2 [Compound 323220] | 2100 | 32 (≈ 90.7 µM) | ≤0.12 | 2 (≈ 5.67 µM) | 4 (≈ 11.3 µM) | 16 (≈ 45.3 µM) | 8 (≈ 22.7 µM) | 8 (≈ 22.7 µM)
CC(=O)Nc1ccc(CN2CCc3nc(-c4ccccn4)[nH]c(=O)c3C2)cc1 [Compound 323222] | > 300000 | > 128 | > 128 | > 128 | > 128 | > 128 | > 128 | > 128
COc1cccc(CN2CCc3nc(-c4ccccn4)[nH]c(=O)c3C2)c1OC [Compound 323223] | 14700 | > 128 | 4 (≈ 10.6 µM) | 32 (≈ 84.6 µM) | 32 (≈ 84.6 µM) | > 128 | 128 (≈ 338 µM) | 64 (≈ 169 µM)
COc1cc(OC)c(OC)cc1CN1CCc2nc(-c3ccccn3)[nH]c(=O)c2C1 [Compound 323226] | 8000 | > 128 | 64 (≈ 157 µM) | > 128 | > 128 | > 128 | > 128 | > 128
O=c1[nH]c(-c2ccccn2)nc2c1CN(Cc1cc(F)cc(F)c1)CC2 [Compound 323230] | 2000 | 32 (≈ 90.3 µM) | 0.5 (≈ 1.41 µM) | 8 (≈ 22.6 µM) | 8 (≈ 22.6 µM) | 32 (≈ 90.3 µM) | 16 (≈ 45.2 µM) | 16 (≈ 45.2 µM)

Source: PMC3353862
